What was measured:
[1] = molecular target: T1, human TLR7 (Homo sapiens, UniProt Q9NYK1); experiment: Human TLR7 Assay (SEAP reporter in HEK293 cells); type: cell-based; conditions: HEK293 cell line expressing human TLR7 and pNiFty2-SEAP reporter, overnight incubation at 37° C., 0.1% DMSO; read-out: hTLR7 EC50;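 note: Read-out is secreted alkaline phosphatase made under an NFkB/ELAM-1 composite promoter, reporting TLR7-triggered NFkB activation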
T1 construct: expressed in transfected cells; host or cells: HEK293 cell line stably expressing the pNiFty2-SEAP reporter plasmid; TLR7 in pUNO vector, blasticidin selection
T1 sequence (Q9NYK1 27-1049): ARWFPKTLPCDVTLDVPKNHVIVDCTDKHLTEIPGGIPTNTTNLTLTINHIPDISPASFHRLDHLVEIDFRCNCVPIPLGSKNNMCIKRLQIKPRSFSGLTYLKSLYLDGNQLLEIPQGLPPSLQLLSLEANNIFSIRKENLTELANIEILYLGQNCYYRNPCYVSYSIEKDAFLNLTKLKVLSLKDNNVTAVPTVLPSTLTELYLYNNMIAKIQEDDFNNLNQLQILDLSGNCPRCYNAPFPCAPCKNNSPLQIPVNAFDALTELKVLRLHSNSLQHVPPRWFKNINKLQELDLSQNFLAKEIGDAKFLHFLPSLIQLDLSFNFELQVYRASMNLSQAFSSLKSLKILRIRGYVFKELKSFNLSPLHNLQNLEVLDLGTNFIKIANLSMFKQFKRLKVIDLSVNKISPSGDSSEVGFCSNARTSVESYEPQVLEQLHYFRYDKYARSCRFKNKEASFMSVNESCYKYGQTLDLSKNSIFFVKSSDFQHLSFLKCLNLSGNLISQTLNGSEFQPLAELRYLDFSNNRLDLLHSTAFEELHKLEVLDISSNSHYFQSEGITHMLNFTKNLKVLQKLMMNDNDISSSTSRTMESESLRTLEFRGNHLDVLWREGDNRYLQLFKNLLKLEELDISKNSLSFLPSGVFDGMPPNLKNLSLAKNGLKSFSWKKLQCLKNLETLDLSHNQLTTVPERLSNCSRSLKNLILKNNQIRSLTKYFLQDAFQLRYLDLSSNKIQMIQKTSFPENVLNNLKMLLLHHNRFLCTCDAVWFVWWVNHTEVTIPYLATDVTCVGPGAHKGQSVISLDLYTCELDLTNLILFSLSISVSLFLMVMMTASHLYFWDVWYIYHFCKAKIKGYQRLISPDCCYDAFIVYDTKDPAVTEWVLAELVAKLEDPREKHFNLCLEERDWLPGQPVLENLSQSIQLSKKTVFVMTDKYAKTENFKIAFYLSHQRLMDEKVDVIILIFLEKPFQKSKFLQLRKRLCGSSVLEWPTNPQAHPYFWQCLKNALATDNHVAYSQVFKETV

[2] = test system: Male Brown Norway rats; experiment: Antigen-induced pulmonary inflammation in a rat asthma model (eosinophils and Th2 cytokines in BALF); type: in vivo; conditions: BALF 48 hours after challenge
Protocol: Rats were sensitized and challenged to produce allergic airway inflammation in a similar manner to that described by Underwood et al (British Journal of Pharmacology 2002; 137: 263-275, 2002). Male Brown Norway rats were sensitized subcutaneously with ovalbumin (OVA) and aluminum hydroxide on day 0, and challenged with aerosolized OVA solution on day 14. The test compound was administered twice intratracheally 24 hours before and 24 hours after the OVA-challenge and bronchoalveolar lavage fluid (BALF) was collected 48 hours after the OVA-challenge. Then eosinophils and Th2 cytokines (IL-5 and IL-13) in the BALF were measured to evaluate efficacy of the test compounds of this invention.

[3] = 0.1 mg/kg intratracheally 24 hours before and 24 hours after OVA-challenge
[4] = 1.0 mg/kg intratracheally 24 hours before and 24 hours after OVA-challenge
[5] = 0.03 mg/kg intratracheally 24 hours before and 24 hours after OVA-challenge
[6] = 0.3 mg/kg intratracheally 24 hours before and 24 hours after OVA-challenge
[7] = 0.01 mg/kg intratracheally 24 hours before and 24 hours after OVA-challenge

Structure (SMILES) | EC50 [1] | Eosinophiles in BALF, inhibition (%) to OVA-Challenge control [2, 3] | IL-5 in BALF, inhibition (%) to OVA-Challenge control [2, 3] | IL-13 in BALF, inhibition (%) to OVA-Challenge control [2, 3] | Eosinophiles in BALF, inhibition (%) to OVA-Challenge control [2, 4] | IL-5 in BALF, inhibition (%) to OVA-Challenge control [2, 4] | IL-13 in BALF, inhibition (%) to OVA-Challenge control [2, 4] | Eosinophiles in BALF, inhibition (%) to OVA-Challenge control [2, 5] | IL-13 in BALF, inhibition (%) to OVA-Challenge control [2, 5] | Eosinophiles in BALF, inhibition (%) to OVA-Challenge control [2, 6] | IL-13 in BALF, inhibition (%) to OVA-Challenge control [2, 6] | Eosinophiles in BALF, inhibition (%) to OVA-Challenge control [2, 7] | IL-5 in BALF, inhibition (%) to OVA-Challenge control [2, 7] | IL-13 in BALF, inhibition (%) to OVA-Challenge control [2, 7]
CCN(CC)CC(=O)N(CCCn1c(CCOC)nc2c(N)nc3ccccc3c21)Cc1cccc(OCC(=O)OC(C)C)c1 [Example 27, Isopropyl 2-{3-[(N-{3-[4-amino-2-(2-methoxyethyl)-1H-imidazo[4,5-c]quinolin-1-yl]propyl}-2-(diethylamino)acetamido)methyl]phenoxy}acetate] | 66.1 nM | 64% | 41% | 72% | 89% | 90% | 88% | – | – | – | – | – | – | –
CCN(CC)CC(=O)N(CCCn1c(CCOC)nc2c(N)nc3ccccc3c21)Cc1cccc(OCC(=O)OC(C)C)c1F [Example 94, Isopropyl 2-{3-[(N-{3-[4-amino-2-(2-methoxyethyl)-1H-imidazo[4,5-c]quinolin-1-yl]propyl}-2-{diethylamino}acetamido)methy]-2-fluorophenoxy}acetate] | 27.9 nM | 68% | 34% | 50% | 91% | 90% | 82% | – | – | – | – | – | – | –
CCN(CC)CC(=O)N(CCCn1c(CCOC)nc2c(N)nc3ccccc3c21)Cc1cccc(OCC(=O)OC2CCCC2)c1 [Example 80, Cyclopentyl 2-{3-[(N-{3-[4-amino-2-(2-methoxyethyl)-1H-imidazo[4,5-c]quinolin-1-yl]propyl}-2-{diethylamino}acetamido)methyl]phenoxy}acetate] | 56.6 nM | 15% | No effect | No effect | 89% | 91% | 83% | – | – | – | – | – | – | –

Second part, led by results:

EC50 [1] | Structure (SMILES) | Eosinophiles in BALF, inhibition (%) to OVA-Challenge control [2, 3] | IL-5 in BALF, inhibition (%) to OVA-Challenge control [2, 3] | IL-13 in BALF, inhibition (%) to OVA-Challenge control [2, 3] | Eosinophiles in BALF, inhibition (%) to OVA-Challenge control [2, 4] | IL-5 in BALF, inhibition (%) to OVA-Challenge control [2, 4] | IL-13 in BALF, inhibition (%) to OVA-Challenge control [2, 4] | Eosinophiles in BALF, inhibition (%) to OVA-Challenge control [2, 5] | IL-13 in BALF, inhibition (%) to OVA-Challenge control [2, 5] | Eosinophiles in BALF, inhibition (%) to OVA-Challenge control [2, 6] | IL-13 in BALF, inhibition (%) to OVA-Challenge control [2, 6] | Eosinophiles in BALF, inhibition (%) to OVA-Challenge control [2, 7] | IL-5 in BALF, inhibition (%) to OVA-Challenge control [2, 7] | IL-13 in BALF, inhibition (%) to OVA-Challenge control [2, 7]
33.1 nM | CCN(CC)CC(=O)N(CCCn1c(CCOC)nc2c(N)nc3ccccc3c21)Cc1cccc(OC(C)(C)C(=O)OC)c1 [Example 56, Methyl 2-{3-[(N-{3-[4-amino-2-(2-methoxyethyl)-1H-imidazo[4,5-c]quinolin-1-yl]propyl}-2-{diethylamino}acetamido)methyl]phenoxy}-2-methylpropanoate] | 78% | 86% | 89% | 94% | 99% | 98% | – | – | – | – | – | – | –
262 nM | CCOCc1nc2c(N)nc3ccccc3c2n1CCCN(Cc1cccc(OCC(=O)OC(C)C)c1)C(=O)CN(CC)CC [Example 161, Isopropyl 2-{3-[(N-{3-[4-amino-2-(ethoxymethyl)-1H-imidazo[4,5-c]quinolin-1-yl]propyl}-2-{diethylamino}acetamido)methyl]phenoxy}acetate] | – | – | – | – | – | – | 54% | No effect | 66% | 64% | – | – | –
174 nM | CCOCc1nc2c(N)nc3ccccc3c2n1CCCN(Cc1cccc(OC(C)(C)C(=O)OC)c1)C(=O)CN(CC)CC [Example 163, Methyl 2-{3-[(N-{3-[4-amino-2-(ethoxymethyl)-1H-imidazo[4,5-c]quinolin-1-yl]propyl}-2-{diethylamino}acetamido)methyl]phenoxy}-2-methylpropanoate] | – | – | – | – | – | – | 45% | 50% | 65% | 80% | – | – | –
31.7 nM | CCN(CC)CC(=O)N(CCCn1c(CCOC)nc2c(N)nc3ccccc3c21)Cc1cccc(OCC(=O)OC)c1 [Example 20, Methyl (3-{[[3-(4-amino-2-(2-methoxyethyl)-1H-imidazo[4,5-c]quinolin-1-yl)propyl](N,N-diethylglycyl)amino]methyl}phenoxy)acetate] | 56% | No effect | 22% | – | – | – | – | – | – | – | 14% | No effect | No effect

From US20110136801A1, “Novel Compounds” (Dainippon Sumitomo Pharma Co. Ltd., priority 2009, published 2011)
